Reference: paper PMC9856672, “SGC-CAMKK2-1: A Chemical Probe for CAMKK2” (Cells, 2023)

Experiments:
PAK6 = molecular target: T1, PAK6 (Homo sapiens, UniProt Q9NQU5); assay: KINOMEscan 1 μM, PAK6; type: binding; conditions: 1000 nM; Entrez PAK6; read-out: Percent Control
T1 construct: purchased Eurofins DiscoverX KINOMEscan
Excerpt: (§1) Supplement cells-12-00287-s001.zip/File S2. KinomeScan data for the CAMKK2 probe and negative control.xlsx, sheet "SGC-CAMKK2-1" | column: Percent Control

MYLK = molecular target: T2, MYLK (Homo sapiens, UniProt Q15746); assay: KINOMEscan 1 μM, MYLK; type: binding; conditions: 1000 nM; Entrez MYLK; read-out: Percent Control
T2 construct: purchased Eurofins DiscoverX KINOMEscan
Excerpt: as §1

MUSK = molecular target: T3, MUSK (Homo sapiens, UniProt O15146); assay: KINOMEscan 1 μM, MUSK; type: binding; conditions: 1000 nM; Entrez MUSK; read-out: Percent Control
T3 construct: purchased Eurofins DiscoverX KINOMEscan
Excerpt: as §1

MAP4K4 = molecular target: T4, MAP4K4 (Homo sapiens, UniProt O95819); assay: KINOMEscan 1 μM, MAP4K4; type: binding; conditions: 1000 nM; Entrez MAP4K4; read-out: Percent Control
T4 construct: purchased Eurofins DiscoverX KINOMEscan
Excerpt: as §1

LCK = molecular target: T5, LCK (Homo sapiens, UniProt P06239); assay: KINOMEscan 1 μM, LCK; type: binding; conditions: 1000 nM; Entrez LCK; read-out: Percent Control
T5 construct: purchased Eurofins DiscoverX KINOMEscan
Excerpt: as §1

MEK3 = molecular target: T6, MEK3 (Homo sapiens, UniProt P46734); assay: KINOMEscan 1 μM, MEK3; type: binding; conditions: 1000 nM; Entrez MAP2K3; read-out: Percent Control
T6 construct: purchased Eurofins DiscoverX KINOMEscan
Excerpt: as §1

TAK1 = molecular target: T7, TAK1 (Homo sapiens, UniProt O43318); assay: KINOMEscan 1 μM, TAK1; type: binding; conditions: 1000 nM; Entrez MAP3K7; read-out: Percent Control
T7 construct: purchased Eurofins DiscoverX KINOMEscan
Excerpt: as §1

RIOK1 = molecular target: T8, RIOK1 (Homo sapiens, UniProt Q9BRS2); assay: KINOMEscan 1 μM, RIOK1; type: binding; conditions: 1000 nM; Entrez RIOK1; read-out: Percent Control
T8 construct: purchased Eurofins DiscoverX KINOMEscan
Excerpt: as §1

FGFR3(G697C) = molecular target: T9, FGFR3(G697C) (Homo sapiens, UniProt P22607, G697C); assay: KINOMEscan 1 μM, FGFR3(G697C); type: binding; conditions: 1000 nM; Entrez FGFR3; read-out: Percent Control
T9 construct: purchased Eurofins DiscoverX KINOMEscan
Excerpt: as §1

HASPIN = molecular target: T10, HASPIN (Homo sapiens, UniProt Q8TF76); assay: KINOMEscan 1 μM, HASPIN; type: binding; conditions: 1000 nM; Entrez GSG2; read-out: Percent Control
T10 construct: purchased Eurofins DiscoverX KINOMEscan
Excerpt: as §1

LOK = molecular target: T11, LOK (Homo sapiens, UniProt O94804); assay: KINOMEscan 1 μM, LOK; type: binding; conditions: 1000 nM; Entrez STK10; read-out: Percent Control
T11 construct: purchased Eurofins DiscoverX KINOMEscan
Excerpt: as §1

MAP4K2 = molecular target: T12, MAP4K2 (Homo sapiens, UniProt Q12851); assay: KINOMEscan 1 μM, MAP4K2; type: binding; conditions: 1000 nM; Entrez MAP4K2; read-out: Percent Control
T12 construct: purchased Eurofins DiscoverX KINOMEscan
Excerpt: as §1

PRKR = molecular target: T13, PRKR (Homo sapiens, UniProt P19525); assay: DiscoverX KINOMEscan binding assay at 1 μM, PRKR; conditions: PRKR (EIF2AK2); Compound Concentration 1000 nM; read-out: Percent Control
T13 construct: purchased Eurofins DiscoverX KINOMEscan
Excerpt: as §1

RAF1 = molecular target: T14, RAF1 (Homo sapiens, UniProt P04049); assay: DiscoverX KINOMEscan binding assay at 1 μM, RAF1; conditions: Compound Concentration 1000 nM, read-out: Percent Control
T14 construct: purchased Eurofins DiscoverX KINOMEscan
Excerpt: as §1

[1] = molecular target: T15, RSK4(Kin.Dom.1-N-terminal) (Homo sapiens, UniProt Q9UK32); assay: DiscoverX KINOMEscan binding assay at 1 μM, RSK4(Kin.Dom.1-N-terminal); conditions: RSK4(Kin.Dom.1-N-terminal) (RPS6KA6); Compound Concentration 1000 nM; read-out: Percent Control
T15 construct: RSK4(Kin.Dom.1-N-terminal); purchased Eurofins DiscoverX KINOMEscan
Excerpt: as §1

SRPK2 = molecular target: T16, SRPK2 (Homo sapiens, UniProt P78362); assay: DiscoverX KINOMEscan binding assay at 1 μM, SRPK2; conditions: Compound Concentration 1000 nM, read-out: Percent Control
T16 construct: purchased Eurofins DiscoverX KINOMEscan
Excerpt: as §1

YANK1 = molecular target: T17, YANK1 (Homo sapiens, UniProt Q8WU08); assay: DiscoverX KINOMEscan binding assay at 1 μM, YANK1; conditions: YANK1 (STK32A); Compound Concentration 1000 nM; read-out: Percent Control
T17 construct: purchased Eurofins DiscoverX KINOMEscan
Excerpt: as §1

ALK(C1156Y) = molecular target: T18, ALK(C1156Y) (Homo sapiens, UniProt Q9UM73, C1156Y); assay: KINOMEscan at 1 μM, ALK(C1156Y); type: binding; conditions: 1000 nM, read-out: Percent Control
T18 construct: purchased Eurofins DiscoverX KINOMEscan
Excerpt: (§2) Supplement cells-12-00287-s001.zip/File S2. KinomeScan data for the CAMKK2 probe and negative control.xlsx, sheet "SGC-CAMKK2-1N" | column: Percent Control

TTK = molecular target: T19, TTK (Homo sapiens, UniProt P33981); assay: KINOMEscan at 1 μM, TTK; type: binding; conditions: 1000 nM, read-out: Percent Control
T19 construct: purchased Eurofins DiscoverX KINOMEscan
Excerpt: as §2

[2] = molecular target: T20, ABL1(E255K)-phosphorylated (Homo sapiens, UniProt P00519, E255K); assay: KINOMEscan at 1 μM, ABL1(E255K)-phosphorylated; type: binding; conditions: 1000 nM, read-out: Percent Control
T20 construct: purchased Eurofins DiscoverX KINOMEscan
Excerpt: as §2

YANK3 = molecular target: T21, YANK3 (Homo sapiens, UniProt Q86UX6); assay: KINOMEscan at 1 μM, YANK3; type: binding; conditions: 1000 nM, read-out: Percent Control
T21 construct: purchased Eurofins DiscoverX KINOMEscan
Excerpt: as §2

FLT1 = molecular target: T22, FLT1 (Homo sapiens, UniProt P17948); assay: KINOMEscan at 1 μM, FLT1; type: binding; conditions: 1000 nM, read-out: Percent Control
T22 construct: purchased Eurofins DiscoverX KINOMEscan
Excerpt: as §2

NEK10 = molecular target: T23, NEK10 (Homo sapiens, UniProt Q6ZWH5); assay: KINOMEscan at 1 μM, NEK10; type: binding; conditions: 1000 nM, read-out: Percent Control
T23 construct: purchased Eurofins DiscoverX KINOMEscan
Excerpt: as §2

CAMK1G = molecular target: T24, CAMK1G (Homo sapiens, UniProt Q96NX5); assay: KINOMEscan at 1 μM, CAMK1G; type: binding; conditions: 1000 nM, read-out: Percent Control
T24 construct: purchased Eurofins DiscoverX KINOMEscan
Excerpt: as §2

CDK4-cyclinD3 = molecular target: T25, CDK4-cyclinD3 (Homo sapiens, UniProt P11802); assay: KINOMEscan at 1 μM, CDK4-cyclinD3; type: binding; conditions: 1000 nM, read-out: Percent Control
T25 construct: purchased Eurofins DiscoverX KINOMEscan
Excerpt: as §2

[3] = molecular target: T26, JAK3(JH1domain-catalytic) (Homo sapiens, UniProt P52333); assay: KINOMEscan at 1 μM, JAK3(JH1domain-catalytic); type: binding; conditions: 1000 nM, read-out: Percent Control
T26 construct: JAK3(JH1domain-catalytic); purchased Eurofins DiscoverX KINOMEscan
Excerpt: as §2

PIK3C2B = molecular target: T27, PIK3C2B (Homo sapiens, UniProt O00750); assay: KINOMEscan at 1 μM, PIK3C2B; type: binding; conditions: 1000 nM, read-out: Percent Control
T27 construct: purchased Eurofins DiscoverX KINOMEscan
Excerpt: as §2

WEE2 = molecular target: T28, WEE2 (Homo sapiens, UniProt P0C1S8); assay: KINOMEscan at 1 μM, WEE2; type: binding; conditions: 1000 nM, read-out: Percent Control
T28 construct: purchased Eurofins DiscoverX KINOMEscan
Excerpt: as §2

[4] = molecular target: T29, RSK1(Kin.Dom.2-C-terminal) (Homo sapiens, UniProt Q15418); assay: KINOMEscan at 1 μM, RSK1(Kin.Dom.2-C-terminal); type: binding; conditions: 1000 nM, read-out: Percent Control
T29 construct: RSK1(Kin.Dom.2-C-terminal); purchased Eurofins DiscoverX KINOMEscan
Excerpt: as §2

PYK2 = molecular target: T30, PYK2 (Homo sapiens, UniProt Q14289); assay: KINOMEscan at 1 μM, PYK2; type: binding; conditions: 1000 nM, read-out: Percent Control
T30 construct: purchased Eurofins DiscoverX KINOMEscan
Excerpt: as §2

EGFR(L747-T751del,Sins) = assay: KINOMEscan binding assay at 1 μM, EGFR(L747-T751del,Sins); design: species or system human; conditions: Compound Concentration 1000 nM
Excerpt: as §2

FRK = molecular target: T31, FRK (Homo sapiens, UniProt P42685); assay: KINOMEscan binding assay at 1 μM, FRK; conditions: Compound Concentration 1000 nM; read-out: Percent Control
T31 construct: purchased Eurofins DiscoverX KINOMEscan
Excerpt: as §2

T12 sequence (Q12851 whole entry): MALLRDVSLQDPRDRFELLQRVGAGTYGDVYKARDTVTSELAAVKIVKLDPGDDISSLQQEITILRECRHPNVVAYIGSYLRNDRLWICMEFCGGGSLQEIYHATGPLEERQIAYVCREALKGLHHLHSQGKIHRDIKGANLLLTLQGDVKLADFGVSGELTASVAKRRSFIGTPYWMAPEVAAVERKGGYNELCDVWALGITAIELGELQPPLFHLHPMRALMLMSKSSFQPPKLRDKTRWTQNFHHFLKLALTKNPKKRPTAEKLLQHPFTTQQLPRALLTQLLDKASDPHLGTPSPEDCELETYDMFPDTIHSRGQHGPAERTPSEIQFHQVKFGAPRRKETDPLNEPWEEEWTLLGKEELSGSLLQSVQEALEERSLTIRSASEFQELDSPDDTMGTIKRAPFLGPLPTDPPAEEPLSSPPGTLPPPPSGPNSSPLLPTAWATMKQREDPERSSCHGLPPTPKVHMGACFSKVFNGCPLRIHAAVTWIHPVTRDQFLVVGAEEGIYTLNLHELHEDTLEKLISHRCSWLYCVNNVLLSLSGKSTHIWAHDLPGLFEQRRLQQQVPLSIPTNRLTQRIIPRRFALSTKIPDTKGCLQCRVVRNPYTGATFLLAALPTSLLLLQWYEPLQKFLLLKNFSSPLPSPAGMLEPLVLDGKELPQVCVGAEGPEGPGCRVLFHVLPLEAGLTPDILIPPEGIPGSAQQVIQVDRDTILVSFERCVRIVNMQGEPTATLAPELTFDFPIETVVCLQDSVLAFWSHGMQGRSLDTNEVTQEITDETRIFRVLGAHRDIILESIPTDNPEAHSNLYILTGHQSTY
T21 sequence (Q86UX6 whole entry): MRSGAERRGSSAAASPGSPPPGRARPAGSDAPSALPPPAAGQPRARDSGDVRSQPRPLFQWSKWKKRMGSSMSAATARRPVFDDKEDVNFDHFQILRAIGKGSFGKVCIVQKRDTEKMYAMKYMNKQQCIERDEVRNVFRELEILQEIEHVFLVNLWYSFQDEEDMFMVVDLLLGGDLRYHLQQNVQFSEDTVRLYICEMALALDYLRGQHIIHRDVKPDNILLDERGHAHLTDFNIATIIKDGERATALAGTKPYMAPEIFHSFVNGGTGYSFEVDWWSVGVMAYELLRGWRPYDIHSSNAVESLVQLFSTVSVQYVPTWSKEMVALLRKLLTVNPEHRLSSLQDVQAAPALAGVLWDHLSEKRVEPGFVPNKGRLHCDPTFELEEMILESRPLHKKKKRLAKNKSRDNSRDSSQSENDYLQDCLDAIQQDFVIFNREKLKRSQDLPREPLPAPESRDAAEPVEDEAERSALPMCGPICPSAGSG
T23 sequence (Q6ZWH5 whole entry): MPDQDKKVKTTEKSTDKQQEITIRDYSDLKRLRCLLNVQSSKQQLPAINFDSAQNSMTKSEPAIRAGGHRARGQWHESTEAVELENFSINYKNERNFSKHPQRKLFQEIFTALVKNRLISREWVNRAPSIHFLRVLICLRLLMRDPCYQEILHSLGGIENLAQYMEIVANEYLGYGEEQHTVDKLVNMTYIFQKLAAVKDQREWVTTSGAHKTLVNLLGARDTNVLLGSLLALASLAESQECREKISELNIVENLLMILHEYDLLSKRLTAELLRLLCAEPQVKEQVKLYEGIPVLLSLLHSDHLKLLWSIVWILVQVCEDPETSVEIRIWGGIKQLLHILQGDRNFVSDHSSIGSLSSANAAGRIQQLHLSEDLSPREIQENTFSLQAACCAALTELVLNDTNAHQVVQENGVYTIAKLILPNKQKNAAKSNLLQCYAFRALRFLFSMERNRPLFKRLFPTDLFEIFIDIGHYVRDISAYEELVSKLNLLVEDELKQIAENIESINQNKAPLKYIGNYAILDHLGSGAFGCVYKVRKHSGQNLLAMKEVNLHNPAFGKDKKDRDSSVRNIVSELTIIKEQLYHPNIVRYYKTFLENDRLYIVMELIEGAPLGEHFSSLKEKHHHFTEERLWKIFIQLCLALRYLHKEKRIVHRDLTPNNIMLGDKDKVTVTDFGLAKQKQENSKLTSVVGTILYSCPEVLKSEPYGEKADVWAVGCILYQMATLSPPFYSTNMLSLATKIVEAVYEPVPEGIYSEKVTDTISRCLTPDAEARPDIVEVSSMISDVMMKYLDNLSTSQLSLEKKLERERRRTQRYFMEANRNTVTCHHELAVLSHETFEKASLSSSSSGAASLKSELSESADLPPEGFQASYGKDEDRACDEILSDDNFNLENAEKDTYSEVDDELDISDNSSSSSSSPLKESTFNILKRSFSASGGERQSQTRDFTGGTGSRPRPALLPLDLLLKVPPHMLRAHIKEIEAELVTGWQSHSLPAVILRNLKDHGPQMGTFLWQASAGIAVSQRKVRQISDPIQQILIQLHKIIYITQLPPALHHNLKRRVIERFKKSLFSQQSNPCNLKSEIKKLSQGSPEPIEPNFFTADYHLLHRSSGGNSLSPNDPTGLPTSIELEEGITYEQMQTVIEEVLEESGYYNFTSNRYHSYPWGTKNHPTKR
T24 sequence (Q96NX5 whole entry): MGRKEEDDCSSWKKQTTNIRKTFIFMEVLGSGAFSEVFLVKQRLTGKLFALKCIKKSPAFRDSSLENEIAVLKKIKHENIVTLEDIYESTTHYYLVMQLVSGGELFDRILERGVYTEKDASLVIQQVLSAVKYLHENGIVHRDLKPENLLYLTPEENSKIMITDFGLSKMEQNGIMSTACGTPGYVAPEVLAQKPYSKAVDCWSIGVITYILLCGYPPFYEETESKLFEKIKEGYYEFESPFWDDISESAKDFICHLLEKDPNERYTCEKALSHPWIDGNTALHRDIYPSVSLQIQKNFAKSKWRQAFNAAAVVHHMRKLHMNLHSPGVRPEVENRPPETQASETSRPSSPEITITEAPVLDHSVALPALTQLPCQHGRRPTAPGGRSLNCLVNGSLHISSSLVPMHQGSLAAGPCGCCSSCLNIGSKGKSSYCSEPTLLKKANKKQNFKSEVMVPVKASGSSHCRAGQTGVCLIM
T22 sequence (P17948 27-1338): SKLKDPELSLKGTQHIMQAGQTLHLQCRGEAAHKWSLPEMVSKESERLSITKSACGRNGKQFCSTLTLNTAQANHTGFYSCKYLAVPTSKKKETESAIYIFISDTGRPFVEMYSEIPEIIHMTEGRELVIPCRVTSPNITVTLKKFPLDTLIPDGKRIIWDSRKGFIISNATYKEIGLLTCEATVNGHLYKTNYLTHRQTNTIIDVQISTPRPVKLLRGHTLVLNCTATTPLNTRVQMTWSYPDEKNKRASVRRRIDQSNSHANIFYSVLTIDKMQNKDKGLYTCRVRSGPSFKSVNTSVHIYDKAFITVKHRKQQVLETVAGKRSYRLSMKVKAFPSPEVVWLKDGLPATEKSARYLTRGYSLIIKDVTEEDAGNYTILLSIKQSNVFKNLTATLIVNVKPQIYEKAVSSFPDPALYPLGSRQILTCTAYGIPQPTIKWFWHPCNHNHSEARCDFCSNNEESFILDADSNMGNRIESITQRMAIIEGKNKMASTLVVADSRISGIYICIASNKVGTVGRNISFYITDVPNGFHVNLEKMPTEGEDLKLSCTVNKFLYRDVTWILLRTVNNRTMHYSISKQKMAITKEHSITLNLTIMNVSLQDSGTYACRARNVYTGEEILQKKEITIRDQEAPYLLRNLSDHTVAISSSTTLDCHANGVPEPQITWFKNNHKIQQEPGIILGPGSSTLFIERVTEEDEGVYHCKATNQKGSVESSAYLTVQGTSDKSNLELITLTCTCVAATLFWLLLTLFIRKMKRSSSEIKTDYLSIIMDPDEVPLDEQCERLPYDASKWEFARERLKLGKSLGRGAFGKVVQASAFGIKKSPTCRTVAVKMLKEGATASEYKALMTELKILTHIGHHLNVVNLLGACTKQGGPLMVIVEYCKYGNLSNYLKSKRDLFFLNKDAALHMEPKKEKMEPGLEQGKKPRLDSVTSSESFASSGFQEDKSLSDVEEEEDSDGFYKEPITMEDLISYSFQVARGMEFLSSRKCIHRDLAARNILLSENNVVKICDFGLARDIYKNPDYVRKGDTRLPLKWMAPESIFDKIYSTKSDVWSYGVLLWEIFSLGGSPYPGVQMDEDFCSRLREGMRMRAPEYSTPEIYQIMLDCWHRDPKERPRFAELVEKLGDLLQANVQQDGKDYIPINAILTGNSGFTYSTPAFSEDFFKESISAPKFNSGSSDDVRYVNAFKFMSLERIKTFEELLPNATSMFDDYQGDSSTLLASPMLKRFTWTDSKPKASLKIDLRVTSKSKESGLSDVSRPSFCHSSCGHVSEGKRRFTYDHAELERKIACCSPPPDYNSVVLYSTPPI
T13 sequence (P19525 whole entry): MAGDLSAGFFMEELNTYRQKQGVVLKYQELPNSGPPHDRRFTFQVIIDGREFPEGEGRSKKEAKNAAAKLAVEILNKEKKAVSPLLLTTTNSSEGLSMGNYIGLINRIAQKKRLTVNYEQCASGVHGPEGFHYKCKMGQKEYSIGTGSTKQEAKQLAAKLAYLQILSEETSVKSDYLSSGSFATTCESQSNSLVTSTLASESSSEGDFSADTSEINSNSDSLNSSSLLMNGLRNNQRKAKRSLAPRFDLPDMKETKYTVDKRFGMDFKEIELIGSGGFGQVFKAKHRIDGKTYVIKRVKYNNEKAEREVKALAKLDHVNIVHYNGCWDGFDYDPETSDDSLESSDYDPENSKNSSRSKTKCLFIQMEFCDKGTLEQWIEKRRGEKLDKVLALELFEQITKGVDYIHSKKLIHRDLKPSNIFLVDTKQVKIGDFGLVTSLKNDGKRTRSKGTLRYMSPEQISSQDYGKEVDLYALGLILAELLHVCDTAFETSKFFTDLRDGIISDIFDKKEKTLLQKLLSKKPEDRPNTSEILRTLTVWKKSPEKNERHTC

Compound `Cc1cccc(-c2cnc3occ(-c4ccc(C(=O)O)c(C5CCCC5)c4)c3c2)c1` [SGC-CAMKK2-1 (YL-36)] has a remaining binding at 1 µM (PAK6) of 67%, a remaining binding at 1 µM (MYLK) of 76% and a remaining binding at 1 µM (MUSK) of 84%. For the same compound, the remaining binding at 1 µM (MAP4K4) was 85%, the remaining binding at 1 µM (LCK) was 86% and the remaining binding at 1 µM (MEK3) was 91%. It also gave a remaining binding at 1 µM (TAK1) of 91%, a remaining binding at 1 µM (RIOK1) of 92% and a remaining binding at 1 µM (FGFR3(G697C)) of 100%. For the same compound, the remaining binding at 1 µM (HASPIN) was 100%, the remaining binding at 1 µM (LOK) was 100% and the remaining binding at 1 µM (MAP4K2) was 100%. For the same compound, the remaining binding at 1 µM (PRKR) was 100%, the remaining binding at 1 µM (RAF1) was 100% and the remaining binding at 1 µM [1] was 100%. For the same compound, the remaining binding at 1 µM (SRPK2) was 100% and the remaining binding at 1 µM (YANK1) was 100%.

Compound `O=C(O)c1ccc(-c2coc3ncc(-c4ccccc4)cc23)cc1Cl` [SGC-CAMKK2-1N (UNC-YL-83)] has a remaining binding at 1 µM (ALK(C1156Y)) of 0%, a remaining binding at 1 µM (TTK) of 54% and a remaining binding at 1 µM [2] of 65%. For the same compound, the remaining binding at 1 µM (YANK3) was 70%, the remaining binding at 1 µM (FLT1) was 76% and the remaining binding at 1 µM (NEK10) was 82%. It also gave a remaining binding at 1 µM (CAMK1G) of 86%, a remaining binding at 1 µM (CDK4-cyclinD3) of 87% and a remaining binding at 1 µM [3] of 87%. It also gave a remaining binding at 1 µM (PIK3C2B) of 91%, a remaining binding at 1 µM (WEE2) of 93% and a remaining binding at 1 µM [4] of 94%. For the same compound, the remaining binding at 1 µM (PYK2) was 96%, the “Percent Control” value (EGFR(L747-T751del,Sins)) was 100% and the remaining binding at 1 µM (FRK) was 100%.
